Experimental data taken from the supplement of paper PMC10307832.

Columns and labels:
Assay in all cases: relative viability (nuclei count vs DMSO), 5 days (fraction); higher = more cells survive
QS11 + Linsitinib = compound: C1CC2=C(C1)C=C(C=C2)OC3=NC(=C4C(=N3)N(C=N4)CC5=CC=C(C=C5)C6=CC=CC=C6)N[C@@H](CC7=CC=CC=C7)CO [QS11] + C[C@]1(O)C[C@@H](c2nc(-c3ccc4ccc(-c5ccccc5)nc4c3)c3c(N)nccn32)C1 [Linsitinib] (partner 1 µM)
Summary of the method: (§1)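 One day after seeding in 1536-well plates, lung cancer cell lines were dosed by pin tool. Dosing was either single-drug or a fixed anchor-drug dose plus five library-drug doses (not always all listed) in √10 steps. After 5 days, nuclei were stained in one fix-and-stain step and counted on 4× images, and relative viability is the nuclei count of treated wells over that of vehicle wells, given as the median of duplicate plates.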

QS11 + Decitabine = compound: C1CC2=C(C1)C=C(C=C2)OC3=NC(=C4C(=N3)N(C=N4)CC5=CC=C(C=C5)C6=CC=CC=C6)N[C@@H](CC7=CC=CC=C7)CO [QS11] + Nc1ncn([C@H]2C[C@H](O)[C@@H](CO)O2)c(=O)n1 [Decitabine] (partner 2 µM)
Summary of the method: as §1

[1] = compound: C[As](C)SC[C@H](NC(=O)CC[C@H](N)C(=O)O)C(=O)NCC(=O)O [Darinaparsin] + CC(C)C[C@H](NC(=O)[C@H](Cc1ccccc1)NC(=O)c1cnccn1)B(O)O [Bortezomib] (partner 0.002 µM)
Summary of the method: as §1

Darinaparsin + Lapatinib = compound: C[As](C)SC[C@H](NC(=O)CC[C@H](N)C(=O)O)C(=O)NCC(=O)O [Darinaparsin] + CS(=O)(=O)CCNCc1ccc(-c2ccc3ncnc(Nc4ccc(OCc5cccc(F)c5)c(Cl)c4)c3c2)o1 [Lapatinib] (partner 2 µM)
Summary of the method: as §1

In the case of H3255, the relative viability (QS11 + Linsitinib; first compound 0.08 µM) is reported as 0.954, the relative viability (QS11 + Linsitinib; first compound 0.253 µM) is reported as 0.97 and the relative viability (QS11 + Linsitinib; first compound 2.53 µM) is reported as 0.973. The relative viability (QS11 + Linsitinib; first compound 8 µM) was 1.03, the relative viability (QS11 + Decitabine; first compound 0.08 µM) was 0.578 and the relative viability (QS11 + Decitabine; first compound 0.253 µM) was 0.64. For the same cell line, the relative viability (QS11 + Decitabine; first compound 2.53 µM) was 0.556, the relative viability (QS11 + Decitabine; first compound 8 µM) was 0.674 and the relative viability ([1]; first compound 0.08 µM) was 0.794. It also gave a relative viability ([1]; first compound 0.8 µM) of 0.835, a relative viability ([1]; first compound 2.53 µM) of 0.79 and a relative viability ([1]; first compound 8 µM) of 0.945. The relative viability (Darinaparsin + Lapatinib; first compound 0.08 µM) was 0.253, the relative viability (Darinaparsin + Lapatinib; first compound 0.8 µM) was 0.28 and the relative viability (Darinaparsin + Lapatinib; first compound 2.53 µM) was 0.25. It also gave a relative viability (Darinaparsin + Lapatinib; first compound 8 µM) of 0.216.
In the case of HCC-827, the relative viability (QS11 + Linsitinib; first compound 0.08 µM) is reported as 0.977, the relative viability (QS11 + Linsitinib; first compound 0.253 µM) is reported as 1.04 and the relative viability (QS11 + Linsitinib; first compound 0.8 µM) is reported as 0.877. The relative viability (QS11 + Linsitinib; first compound 2.53 µM) was 0.929, the relative viability (QS11 + Linsitinib; first compound 8 µM) was 0.821 and the relative viability (QS11 + Decitabine; first compound 0.08 µM) was 0.343. The relative viability (QS11 + Decitabine; first compound 0.253 µM) was 0.33, the relative viability (QS11 + Decitabine; first compound 0.8 µM) was 0.308 and the relative viability (QS11 + Decitabine; first compound 2.53 µM) was 0.336. It also gave a relative viability (QS11 + Decitabine; first compound 8 µM) of 0.337, a relative viability ([1]; first compound 0.08 µM) of 1.12 and a relative viability ([1]; first compound 0.8 µM) of 1.02. For the same cell line, the relative viability ([1]; first compound 2.53 µM) was 1.08, the relative viability ([1]; first compound 8 µM) was 1.15 and the relative viability (Darinaparsin + Lapatinib; first compound 0.08 µM) was 0.198. For the same cell line, the relative viability (Darinaparsin + Lapatinib; first compound 0.8 µM) was 0.184, the relative viability (Darinaparsin + Lapatinib; first compound 2.53 µM) was 0.153 and the relative viability (Darinaparsin + Lapatinib; first compound 8 µM) was 0.176.
In the case of LXF-289, the relative viability (QS11 + Linsitinib; first compound 0.08 µM) is reported as 0.977, the relative viability (QS11 + Linsitinib; first compound 0.253 µM) is reported as 1.01 and the relative viability (QS11 + Linsitinib; first compound 0.8 µM) is reported as 0.681. For the same cell line, the relative viability (QS11 + Linsitinib; first compound 2.53 µM) was 0.896, the relative viability (QS11 + Linsitinib; first compound 8 µM) was 0.72 and the relative viability (QS11 + Decitabine; first compound 0.08 µM) was 0.347. For the same cell line, the relative viability (QS11 + Decitabine; first compound 0.253 µM) was 0.361, the relative viability (QS11 + Decitabine; first compound 0.8 µM) was 0.346 and the relative viability (QS11 + Decitabine; first compound 2.53 µM) was 0.443. It also gave a relative viability (QS11 + Decitabine; first compound 8 µM) of 0.396, a relative viability ([1]; first compound 0.08 µM) of 1.09 and a relative viability ([1]; first compound 0.8 µM) of 1.03. For the same cell line, the relative viability ([1]; first compound 2.53 µM) was 0.81, the relative viability ([1]; first compound 8 µM) was 1.19 and the relative viability (Darinaparsin + Lapatinib; first compound 0.08 µM) was 0.968. It also gave a relative viability (Darinaparsin + Lapatinib; first compound 0.8 µM) of 0.874, a relative viability (Darinaparsin + Lapatinib; first compound 2.53 µM) of 0.765 and a relative viability (Darinaparsin + Lapatinib; first compound 8 µM) of 1.08.
Work on NCI-H727 yielded a relative viability (QS11 + Linsitinib; first compound 0.08 µM) of 0.287, a relative viability (QS11 + Linsitinib; first compound 0.253 µM) of 0.296 and a relative viability (QS11 + Linsitinib; first compound 0.8 µM) of 0.338. The relative viability (QS11 + Linsitinib; first compound 2.53 µM) was 0.316, the relative viability (QS11 + Linsitinib; first compound 8 µM) was 0.289 and the relative viability (QS11 + Decitabine; first compound 0.08 µM) was 0.767. The relative viability (QS11 + Decitabine; first compound 0.253 µM) was 0.855, the relative viability (QS11 + Decitabine; first compound 0.8 µM) was 0.762 and the relative viability (QS11 + Decitabine; first compound 2.53 µM) was 0.899. The relative viability (QS11 + Decitabine; first compound 8 µM) was 0.61, the relative viability ([1]; first compound 0.08 µM) was 0.912 and the relative viability ([1]; first compound 0.8 µM) was 0.742. For the same cell line, the relative viability ([1]; first compound 2.53 µM) was 0.963, the relative viability ([1]; first compound 8 µM) was 0.986 and the relative viability (Darinaparsin + Lapatinib; first compound 0.08 µM) was 0.872. It also gave a relative viability (Darinaparsin + Lapatinib; first compound 0.8 µM) of 0.545, a relative viability (Darinaparsin + Lapatinib; first compound 2.53 µM) of 0.79 and a relative viability (Darinaparsin + Lapatinib; first compound 8 µM) of 0.967.
With NCI-H322M the relative viability (QS11 + Linsitinib; first compound 0.08 µM) was 0.93, the relative viability (QS11 + Linsitinib; first compound 0.253 µM) was 0.914 and the relative viability (QS11 + Linsitinib; first compound 0.8 µM) was 0.931. It also gave a relative viability (QS11 + Linsitinib; first compound 2.53 µM) of 1.02, a relative viability (QS11 + Linsitinib; first compound 8 µM) of 0.936 and a relative viability (QS11 + Decitabine; first compound 0.08 µM) of 0.741. It also gave a relative viability (QS11 + Decitabine; first compound 0.253 µM) of 0.739, a relative viability (QS11 + Decitabine; first compound 0.8 µM) of 0.672 and a relative viability (QS11 + Decitabine; first compound 2.53 µM) of 0.801. The relative viability (QS11 + Decitabine; first compound 8 µM) was 0.935, the relative viability ([1]; first compound 0.08 µM) was 1.21 and the relative viability ([1]; first compound 0.8 µM) was 1.3. It also gave a relative viability ([1]; first compound 2.53 µM) of 1.04, a relative viability ([1]; first compound 8 µM) of 1.32 and a relative viability (Darinaparsin + Lapatinib; first compound 0.08 µM) of 0.611. For the same cell line, the relative viability (Darinaparsin + Lapatinib; first compound 0.8 µM) was 0.603, the relative viability (Darinaparsin + Lapatinib; first compound 2.53 µM) was 0.52 and the relative viability (Darinaparsin + Lapatinib; first compound 8 µM) was 0.603.
With NCI-H2126 the relative viability (QS11 + Linsitinib; first compound 0.08 µM) was 0.71, the relative viability (QS11 + Linsitinib; first compound 0.253 µM) was 0.814 and the relative viability (QS11 + Linsitinib; first compound 0.8 µM) was 0.679. It also gave a relative viability (QS11 + Linsitinib; first compound 2.53 µM) of 0.683, a relative viability (QS11 + Linsitinib; first compound 8 µM) of 0.643 and a relative viability (QS11 + Decitabine; first compound 0.08 µM) of 0.588. It also gave a relative viability (QS11 + Decitabine; first compound 0.253 µM) of 0.63, a relative viability (QS11 + Decitabine; first compound 0.8 µM) of 0.573 and a relative viability (QS11 + Decitabine; first compound 2.53 µM) of 0.574. It also gave a relative viability (QS11 + Decitabine; first compound 8 µM) of 0.473, a relative viability ([1]; first compound 0.08 µM) of 1.16 and a relative viability ([1]; first compound 0.8 µM) of 1.2. The relative viability ([1]; first compound 2.53 µM) was 0.892, the relative viability ([1]; first compound 8 µM) was 1.19 and the relative viability (Darinaparsin + Lapatinib; first compound 0.08 µM) was 0.767. It also gave a relative viability (Darinaparsin + Lapatinib; first compound 0.8 µM) of 0.712, a relative viability (Darinaparsin + Lapatinib; first compound 2.53 µM) of 0.622 and a relative viability (Darinaparsin + Lapatinib; first compound 8 µM) of 0.861.
NCI-H2405 showed a relative viability (QS11 + Linsitinib; first compound 0.08 µM) of 0.893, a relative viability (QS11 + Linsitinib; first compound 0.253 µM) of 0.925 and a relative viability (QS11 + Linsitinib; first compound 0.8 µM) of 0.946. It also gave a relative viability (QS11 + Linsitinib; first compound 2.53 µM) of 0.942, a relative viability (QS11 + Linsitinib; first compound 8 µM) of 1.17 and a relative viability (QS11 + Decitabine; first compound 0.08 µM) of 0.793. For the same cell line, the relative viability (QS11 + Decitabine; first compound 0.253 µM) was 0.714, the relative viability (QS11 + Decitabine; first compound 0.8 µM) was 0.706 and the relative viability (QS11 + Decitabine; first compound 2.53 µM) was 0.906. It also gave a relative viability (QS11 + Decitabine; first compound 8 µM) of 0.843, a relative viability ([1]; first compound 0.08 µM) of 1.08 and a relative viability ([1]; first compound 0.8 µM) of 0.936. It also gave a relative viability ([1]; first compound 2.53 µM) of 0.899, a relative viability ([1]; first compound 8 µM) of 1.09 and a relative viability (Darinaparsin + Lapatinib; first compound 0.08 µM) of 1.04. The relative viability (Darinaparsin + Lapatinib; first compound 0.8 µM) was 1.01, the relative viability (Darinaparsin + Lapatinib; first compound 2.53 µM) was 1.04 and the relative viability (Darinaparsin + Lapatinib; first compound 8 µM) was 1.1.
Cell Line NCI-H520 has a relative viability (QS11 + Linsitinib; first compound 0.253 µM) of 0.986, a relative viability (QS11 + Linsitinib; first compound 0.8 µM) of 1.09 and a relative viability (QS11 + Linsitinib; first compound 2.53 µM) of 1.18. It also gave a relative viability (QS11 + Linsitinib; first compound 8 µM) of 1.11, a relative viability (QS11 + Decitabine; first compound 0.08 µM) of 0.567 and a relative viability (QS11 + Decitabine; first compound 0.253 µM) of 0.513. For the same cell line, the relative viability (QS11 + Decitabine; first compound 0.8 µM) was 0.531, the relative viability (QS11 + Decitabine; first compound 2.53 µM) was 0.537 and the relative viability (QS11 + Decitabine; first compound 8 µM) was 0.531. For the same cell line, the relative viability ([1]; first compound 0.08 µM) was 0.765, the relative viability ([1]; first compound 0.8 µM) was 0.491 and the relative viability ([1]; first compound 2.53 µM) was 0.531. It also gave a relative viability ([1]; first compound 8 µM) of 0.474, a relative viability (Darinaparsin + Lapatinib; first compound 0.08 µM) of 1.11 and a relative viability (Darinaparsin + Lapatinib; first compound 0.8 µM) of 0.817. For the same cell line, the relative viability (Darinaparsin + Lapatinib; first compound 2.53 µM) was 0.802 and the relative viability (Darinaparsin + Lapatinib; first compound 8 µM) was 0.794.
EKVX gave a relative viability (QS11 + Linsitinib; first compound 0.08 µM) of 1.04, a relative viability (QS11 + Linsitinib; first compound 0.253 µM) of 0.995 and a relative viability (QS11 + Linsitinib; first compound 2.53 µM) of 1.02. The relative viability (QS11 + Linsitinib; first compound 8 µM) was 0.982, the relative viability (QS11 + Decitabine; first compound 0.08 µM) was 0.321 and the relative viability (QS11 + Decitabine; first compound 0.253 µM) was 0.44. It also gave a relative viability (QS11 + Decitabine; first compound 0.8 µM) of 0.327, a relative viability (QS11 + Decitabine; first compound 2.53 µM) of 0.392 and a relative viability (QS11 + Decitabine; first compound 8 µM) of 0.341. The relative viability ([1]; first compound 0.08 µM) was 1.14, the relative viability ([1]; first compound 0.8 µM) was 0.96 and the relative viability ([1]; first compound 2.53 µM) was 0.946. For the same cell line, the relative viability ([1]; first compound 8 µM) was 1.41, the relative viability (Darinaparsin + Lapatinib; first compound 0.08 µM) was 0.188 and the relative viability (Darinaparsin + Lapatinib; first compound 0.8 µM) was 0.165. The relative viability (Darinaparsin + Lapatinib; first compound 2.53 µM) was 0.234 and the relative viability (Darinaparsin + Lapatinib; first compound 8 µM) was 0.216.
